Like-named read-outs stand apart in the source and are kept apart here.
Experiments:
[1] = test system: SMMC7721, human liver cancer cell strain; assay: IC50 test on tumor cells (MTT), SMMC7721; format: cell-based; conditions: read-out: Half Inhibitory concentrations (IC50) on human tumor cell strain growth
Procedure: (§1) The melonines A, B, C and D as prepared in Example 1 were separately dissolved with dimethyl sulfoxide (DMSO) to form 1 mg/ml storage solutions, stored away from light for standby use.
(§2) Cisplatin was used as positive control.
(§3) (1) Inoculating cells: preparing cell suspension with culture medium comprising 10% fetal bovine serum (DMEM or RMPI1640), inoculating 96 wells plate with 10000-20000 cells per well (100 μl per well); if adherent cells are needed, inoculation and culture will be conducted 12 h in advance.
(§4) (2) adding a solution of compound to be tested (compound monomer of fixed concentration 40 μM for primary screening, crude extract of 100 μg/ml for primary screening, setting 5 concentrations for gradient repetitive screening for those compounds with a tumor cell growth inhibition rate of about 50% at the concentration for primary screening), final volume of 200 μl per well, and setting 3 repetitive wells for each treatment.
(§5) (3) Developing: culturing at 37° C. for 48 h, adding 20 μl of MTT solution to each well, continually incubating for 4 h, terminating cultivation, carefully discarding supernatant 100 μl to avoid cell lose, adding 20% SDS 100 μl to each well, incubating overnight (37° C.) to completely dissolve crystal.
(§6) (4) colorimetric analysis: selecting 595 nm wavelength, reading light absorption value of each well by […] (Bio-Rad 680), recording results, plotting cell growth curve using concentration as abscissa and cell survival rate as ordinate, and calculating IC50 value of compound using Reed and Muench method.
(§7) (5) Positive control: cisplatin.

[2] = test system: PANC-1, human pancreatic cancer cell strain; assay: IC50 test on tumor cells (MTT), PANC-1; format: cell-based; conditions: PANC-1, MTT, 48 h, read-out: Half Inhibitory concentrations (IC50) on human tumor cell strain growth
Procedure: as §1, §2, §3, §4, §5, §6, §7

[3] = test system: A549, human lung cancer cell strain; assay: IC50 test on tumor cells (MTT), A549; format: cell-based; conditions: 48 h, read-out: Half Inhibitory concentrations (IC50) on human tumor cell strain growth
Procedure: as §1, §2, §3, §4, §5, §6, §7

[4] = test system: SK-BR-3, human breast cancer cell strain; assay: IC50 test on tumor cells (MTT), SK-BR-3; format: cell-based; conditions: SK-BR-3, MTT, 48 h, read-out: Half Inhibitory concentrations (IC50) on human tumor cell strain growth
Procedure: as §1, §2, §3, §4, §5, §6, §7

[5] = test system: HL-60, human leukemic cell strain; assay: IC50 test on tumor cells (MTT), HL-60; format: cell-based; conditions: HL-60, MTT, 48 h, read-out: Half Inhibitory concentrations (IC50) on human tumor cell strain growth
Procedure: as §1, §2, §3, §4, §5, §6, §7

[6] = Solubility (qualitative description); format: physicochemical
[7] = Body weight of NCI-H460 tumor-bearing nude mice; format: in vivo, female BALB/cA nude mice; conditions: 20, 10 and 2 mg/kg intravenous, 3 times per week
Procedure: (§8) Test animals: female BALB/cA nude mice, 35-40 days, body weight 18-22 g, provided by Shanghai Slack, certificate no.: SCXK (Hu) 2007-0005. Divided into four groups:
(§9) Administration group 1: 6 mice, intravenously administered with melonine C, in a dose of 20 mg/kg, 3 times per week.
(§10) Administration group 2: 6 mice, intravenously administered with melonine C, in a dose of 10 mg/kg, 3 times per week.
(§11) Administration group 3: 6 mice, intravenously administered with melonine C, in a dose of 2 mg/kg, 3 times per week.
The well-grown tumor tissues were cut into 1.5 mm^3 pieces, inoculated into right-side armpit subcutaneously under sterile condition. The nude mouse transplanted tumore diameter was measured by vernier caliper, and the animals were grouped randomly when the tumore grew to 100-300 mm^3. The antitumor effects of the compounds to be tested were observed by measuring tumor diameters. The number of measuring tumore diameters was 3 per week, and the mice were weighed simultaneously when each measurement was conducted. Melonine C was intravenously administered in doses of 20 mg/kg, 10 mg/kg, 2 mg/kg, separately, 3 times per week.

[8] = Acute toxicity test, mice; conditions: mouse, in vivo, intravenous, tail vein injection
Procedure: (§12) Animal lines: healthy mice, rats. Age was 7-9 weeks. In the same batch of tests, the initial body weight of mice or rats should not be greater or less than the average body weight by 20%.
(§13) Administration route: tail vein injection for both rats and mice.
(§14) Measurement of median lethal dose (LD50):
Maximum tolerated dose (MTD) test method: MTD refers to a dose that causes significant toxic reaction without death in animals.
(§15) Test observation: the observation was performed for one week after administered with the drug to be tested, the time of appearance and disappearance of various toxic reactions was carefully observed and recorded for each animal. The observation and recording were performed twice on the day of administering the drug to be tested, then once per day in the following days. The contents to be observed and recorded include skin, mucous membrane, coat color, eyes, respiration, circulation, behaviors of autonomic and central nervous systems, etc. Before the drug to be tested was administered, one week after the drug to be tested was administered, when the animal died, and when the test was ended, the animals were weighed to get their body weights. All animals, including dead or executed animals, were subjected to autopsy, and histopathologic examination was performed for organs with abnormal autopsy results.

[9] = Acute toxicity test, observation and autopsy; format: in vivo; conditions: tail vein injection, immediately after dosing
Procedure: as §12, §13, §15

[10] = test system: human NCI-H460 nude mouse transplanted tumor; assay: Activity against nude mouse-transplanted tumors; format: in vivo, female BALB/cA nude mice; conditions: 10 mg/kg intravenous, 3 times per week
Procedure: as §8
Negative control group: 12 mice (intravenous injection with physiological saline, 3 times per week).
as §9, §10, §11
Transplanted tumors: human NCI-H460 nude mouse transplanted tumor, established by subcutaneously inoculating human NCI-H460 cell strain to female BALB/c nude mice (from Shanghai Slack Co., Ltd.). Inoculated cell number was 3×10^6, the formed transplanted tumor after inoculation was then passaged 3 times in body of nude mice before use. […]
The well-grown tumor tissues were cut into 1.5 mm^3 pieces, inoculated into right-side armpit subcutaneously under sterile condition. The nude mouse transplanted tumore diameter was measured by vernier caliper, and the animals were grouped randomly when the tumore grew to 100-300 mm^3. […]

[11] = Acute toxicity test, rats; conditions: rat, in vivo, intravenous, tail vein injection
Procedure: as §12, §13, §14, §15

Row | SMILES | IC50 ([1]; Homo sapiens, SMMC-7721, 48 h) [µM] | solubility in acetone [6] | solubility in methanol [6] | solubility in water [6] | IC50 ([2]; Homo sapiens) [µM] | IC50 ([3]; Homo sapiens) [µM] | IC50 ([4]; Homo sapiens) [µM] | IC50 ([5]; Homo sapiens) [µM] | solubility in chloroform ([6]; chloroform) | IC50 ([1]; 48 h) [µM] | IC50 [2] [µM] | IC50 [3] [µM] | IC50 [4] [µM] | IC50 [5] [µM] | effect on the body weight [7] | LD50 at 1 week ([8]; mice) [mg/kg] | MTD at 1 week ([8]; printed on the mice line, read-out: MTD (maximum tolerated dose)) [mg/kg] | toxic reactions observed [9] | relative tumor proliferation rate T/C (%) [10] [%] | LD50 at 1 week [11] [mg/kg]
1 | N.N.[Cl][Pt][Cl] [Cisplatine, Cisplatin, reference compound] |  |  |  |  |  |  |  |  |  | 14.1 | 19.5 | 26.5 | 22.5 | 0.75 |  |  |  |  |  | 
2 | CCC12CCCN3CCc4c(n(c5ccccc45)C(c4ccc(O)c5c4NC4CCC6(CC)CCCN7CCC54C76)C1)C32 (centres unmarked) [Melonine C, melonine C] | 2.73 | slightly soluble | easily soluble | slightly soluble | 3.77 | 3.01 | 3.63 | 0.66 |  |  |  |  |  |  | no significant effect | 32 | 22 | accelerated breathing, ataxia, convulsions, or even died | 56.41 | 20

Continued, in another order:

Row | IC50 ([1]; Homo sapiens, SMMC-7721, 48 h) [µM] | solubility in acetone [6] | solubility in methanol [6] | solubility in water [6] | IC50 ([2]; Homo sapiens) [µM] | IC50 ([3]; Homo sapiens) [µM] | IC50 ([4]; Homo sapiens) [µM] | IC50 ([5]; Homo sapiens) [µM] | solubility in chloroform ([6]; chloroform) | SMILES | IC50 ([1]; 48 h) [µM] | IC50 [2] [µM] | IC50 [3] [µM] | IC50 [4] [µM] | IC50 [5] [µM] | effect on the body weight [7] | LD50 at 1 week ([8]; mice) [mg/kg] | MTD at 1 week ([8]; printed on the mice line, read-out: MTD (maximum tolerated dose)) [mg/kg] | toxic reactions observed [9] | relative tumor proliferation rate T/C (%) [10] [%] | LD50 at 1 week [11] [mg/kg]
3 | 7.4 | slightly soluble | Easily soluble | slightly soluble | 14.5 | 14.7 | 7.78 | 2.53 |  | CCC12CCCN3CCc4c(n(c5ccccc45)C(c4cc5c(cc4O)N4CCCC6(CC)CCCN7CCC5(OC)C746)C1)C32 (centres unmarked) [Melonine B, melonine B] |  |  |  |  |  |  |  |  |  |  | 
4 | 18.1 | slightly soluble | Easily soluble | slightly soluble | 23.4 | 11.1 | 23.2 | 2.77 |  | CCC12CCCN3CCc4c(n(c5ccccc45)C(c4ccc(O)c5c4N=C4CCC6(CC)CCCN7CCC45C76)C1)C32 (centres unmarked) [Melonine D, melonine D] |  |  |  |  |  |  |  |  |  |  | 
5 | 11.5 | Easily soluble | Easily soluble | slightly soluble | > 40 | 22.1 | 15.4 | 2.84 | Easily soluble | CCC12CCCNC3=C(C(=O)C(=O)C=C3C3CC4(CC)CCCN5CCc6c(n3c3ccccc63)C54)C3=C1N(CCC2)CC3 (centres unmarked) [Melonine A, melonine A] |  |  |  |  |  |  |  |  |  |  | 
